Laboratory results taken from patent US20070172471A1, “Method for identifying an anti- streptococcal agent and its use for treating streptococcal infections” (Hansa Medical AB, priority 2003, published 2007).

What was measured:
[1] = system: M1 protein-induced release of HBP from PMNs in human blood; details: M1 protein 1 μg/ml, 30 min 37° C., FIG. 2 and FIG. 5B
Protocol: HBP release. 100 μl human blood were diluted in PBS to a final volume of 1.0 ml and incubated with various PMNs-activating components for 30 min at 37° C. Cells were centrifuged (300×g for 15 min) and the supernatant was analyzed by sandwich ELISA. In order to quantify the total amount of HBP in blood, cells were lysed with 0.02% (v/v) Triton X-100, and pelleted as described above.

[2] = system: mice of the C57BL/6 strain
[3] = system: thrombin-induced coagulation of normal plasma; details: Laudano and Doolittle, 1980; cited from earlier work
TNF-stimulated PMNs = details: Loike et al., 1991; cited from earlier work
PMNs = details: Ruf and Patscheke, 1995; cited from earlier work
[4] = system: purified PMNs in a mixture of plasma and M1 protein; assay: M1 protein-induced PMN aggregation, scanning electron microscopy; assay type: cell-based, human
Protocol: Cell culture, neutrophil isolation, and stimulation of cells. Human PMNs were isolated from fresh heparinized blood of healthy volunteers using NIM, a single step density gradient medium, according to the instructions supplied by the manufacture. PMNs were counted with a hemocytometer, resuspended in MEM medium at 10^7 cells/ml and maintained on rotation in this medium at room temperature until use. All experiments on isolated PMNs were performed in Na-medium and initiated within 1 h of PMN isolation. Neutrophilic proteinase release was induced by PMN activation through antibody cross-linking of CD11 b/CD18 as described previously (Gautam et al., 2000, J. Exp. Med., 191, 1829-1839).
Scanning electron microscopy—Probes were gently applied to Millipore filters (Waters Corporation, Milford). Samples were then sucked down to the filters by a wet filter paper lying underneath. The filters were fixed in 2% (v/v) glutaraldehyde, 0.1 M sodium cacodylate, 0.1 M sucrose, pH 7.2 for 1 h at 4° C., and washed with 0.15 M cacodylate, pH 7.2. The filters were postfixed with 1% (w/v) osmium tetroxide, 0.15 M sodium cacodylate, pH 7.2, for 1 h at 4° C., washed, and stored in cacodylate buffer. […]

[5] = system: S. pyogenes AP1 bacteria infected mice; assay type: in vivo, mouse; details: s.c. AP1 bacteria with 400 μg peptide, i.v. peptide after 30 min, lungs six hours after infection, scanning electron microscopy
[6] = system: thrombin-induced coagulation of normal plasma; assay: Clotting assay (thrombin clotting time); assay type: biochemical; details: human plasma, peptides 100 μg/ml, 15 min 37° C., FIG. 5A
Protocol: Clotting assay—The thrombin clotting time (TCT) was measured in a coagulometer (Amelung, Lemgo, Germany). Samples of 200 μl human citrate-treated plasma were incubated with 4 μl of peptide H-2395 or H-2940 (5 mg/ml) for 15 min at 37° C. Clotting was initiated by adding 100 μl of the TCT reagent (Sigma Chemicals, St. Louis, Mo.).

[7] = M1 protein 15 μg/animal with peptide 400 μg/animal i.v., 30 min

Gly-Pro-Arg-Pro (GPRP) [peptide derived from the NH2-terminal region of the Aα chain of fibrinogen, used as β2 integrin antagonist]
effect on M1 protein-induced release of HBP [1]: blocked the mobilization of HT3P by M1 protein in a dose dependent manner | M1 protein induced lung lesions (hemorrhage and tissue destruction), light microscopy [2, 7]: almost completely prevented | M1 protein-caused lung damage, scanning electron microscopy [2, 7]: contained no precipitates | ratio of lung area containing protein aggregates versus total lung area ([2]; M1 protein plus peptide i.v., six lung sections per animal, electron microscopy): 6±2% | clot formation [3]: prevents clot formation | adherence of TNF-stimulated PMNs to fibrinogen-coated surfaces (TNF-stimulated PMNs): block adherence | platelet-induced activation of PMNs (PMNs): inhibited | M1 protein-induced PMN aggregation [4]: inhibited the aggregation | lung damage in infected mice [5]: much less affected | thrombin-induced coagulation / clotting time [6]: completely blocked thrombin-induced coagulation
